Experimental data: patent US20180148390A1, “METHOD AND COMPOSITION FOR RETAINING NUTRIENTS IN SOIL AT PLANTING SITES” (WaterScience, Inc., priority 2016, published 2018)
Converted amounts (≈) assume the structure as drawn.

What was measured:
physchem = conditions: for solubility: 25 °C, pH 7, water
Description: High solubility of naturally occurring positively charged amino acids are subject to runoff, which may be problematic. However, positively charged amino acids are better retained than negatively charged nitrate, sulfate, and phosphate which are poorly retained in the negatively charged soils.

[1] = Electro-potential of amino acid in deionized water against a hydrogen electrode; type: physicochemical; conditions: amino acid in 100 ml deionized water, electro-potential meter against hydrogen electrode
Protocol: After drying, 890.9 mg of the modified alanine (i.e., protonated alanine) was added to 100 ml of deionized water to form a modified alanine solution. The electro-potential of the modified alanine water mixture was measured with an electro-potential meter against a hydrogen electrode. […] 890.9 mg sample of unmodified alanine was added to 100 ml of deionized water.
890.9 mg sample of unmodified glutamic acid was added to 100 ml of deionized water.
After drying, 1902 mg of the modified leucine was added to 100 ml of deionized water to form a modified leucine solution. The electro-potential of the modified leucine water mixture was measured with an electro-potential meter against a Hydrogen electrode. […] 1312 mg sample of unmodified leucine was added to 100 ml of deionized water.

[2] = Column retention of amino acid on WS A201; type: physicochemical; conditions: for amount complexed and retained by the WS A 201 / amount passed through the column: 100 ml solution on 89 ml WS A201 column at 1.5 ml/min, displaced with 100 ml deionized water; for converted to cationic charge: from WS A201 column retention
Protocol: The modified alanine solution was added to 100 ml burette with 9 mm diameter at the rate of 1.5 ml/min. The column was filled with 89 ml of WS A201 (WaterScience, Inc., Peoria, Ill.) which has an anion exchange capacity of 2 EG Kg. To the burette was added 100 ml deionized water to displace the modified alanine. […] The 100 ml of deionized water containing 890.9 mg of unmodified alanine was added to another column containing fresh WS A 201. To the burette was also added 100 ml of deionized water to displace the unmodified alanine solution from the column.
The column was filled with 89 ml of WS A 201 which has an anion exchange capacity of 2 EG Kg. […] The 100 ml of deionized water containing 1471 mg of unmodified glutamic acid was added to another column containing fresh WS A 201. To the burette column was also added 100 ml of deionized water to displace the unmodified glutamic acid solution from the column.
The 1% modified leucine acid solution was added to 100 ml burette with 9 mm diameter at the rate of 1.5 ml/min. The column was filled with 89 ml of WS A 201 which has an anion exchange capacity of 2 EG Kg. To the burette was added 100 ml deionized water to displace the modified leucine. […] The 100 ml of deionized water containing 1312 mg of unmodified leucine was added to another column containing fresh WS A 201. To the burette was also added 100 ml of deionized water to displace the unmodified leucine solution from the column.

Compound	electro-potential [1] [mV]	amount complexed and retained by the WS A 201 [2] [mg]	amount passed through the column [2] [mg]	converted to cationic charge [2] [%]	solubility (physchem) [mg/mL]	reduction of solubility by modification with a weak base to pH 10 (physchem; pH 10) [%]
N[C@@H](Cc1c[nH]cn1)C(=O)O [histidine]	–	–	–	–	41.9 (≈ 270 mM)	–
NCCCC[C@H](N)C(=O)O [lysine]	–	–	–	–	1000 (≈ 6840 mM)	89
C[C@H](N)C(=O)O [modified alanine, Protonated alanine]	177	845.8	45.1	94.9	–	–
N[C@@H](CCC(=O)O)C(=O)O [unmodified glutamic acid, glutamic acid, reference compound]	–	79	1392	–	–	–
CC(C)C[C@H](N)C(=O)O [unmodified leucine, leucine, reference compound]	–	41	1271	–	–	–

Second part, led by results:

electro-potential [1] [mV]	amount complexed and retained by the WS A 201 [2] [mg]	amount passed through the column [2] [mg]	converted to cationic charge [2] [%]	Compound	solubility (physchem) [mg/mL]	reduction of solubility by modification with a weak base to pH 10 (physchem; pH 10) [%]
197	1246	66	95	CC(CNC(=N)N)C[C@H](N)C(=O)O (some centres unmarked) [modified leucine, Guanidine modified leucine]	–	–
–	37.3	853.6	–	C[C@H](N)C(=O)O [unmodified alanine, alanine, reference compound]	–	–
